Activity calls are given as the source filed them. The rule behind the calls is not given here.
Target: Neurotensin receptor type 1 (Homo sapiens) (UniProt P30989)
Assay: NTR1 agonist calcium signaling, SAR follow-up, cell-based, fluorescence, calcium flux, single concentration (AID 602466)
Conditions: NTR1-expressing cells, at 30 µM (top of the series)

Neurotensin receptor type 1 (Homo sapiens), sequence (P30989 whole entry, looked up): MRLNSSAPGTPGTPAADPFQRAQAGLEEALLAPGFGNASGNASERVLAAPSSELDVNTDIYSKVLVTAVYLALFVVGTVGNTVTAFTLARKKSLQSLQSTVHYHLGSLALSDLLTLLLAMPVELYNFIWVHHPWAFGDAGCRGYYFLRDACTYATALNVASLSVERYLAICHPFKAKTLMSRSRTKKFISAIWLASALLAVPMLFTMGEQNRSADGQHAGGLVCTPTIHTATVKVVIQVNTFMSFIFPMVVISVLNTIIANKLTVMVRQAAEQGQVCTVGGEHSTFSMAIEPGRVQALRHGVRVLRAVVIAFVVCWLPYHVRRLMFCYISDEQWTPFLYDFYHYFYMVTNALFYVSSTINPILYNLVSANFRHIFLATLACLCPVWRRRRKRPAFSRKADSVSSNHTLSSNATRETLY

Row | Structure (SMILES) | activation
1 | COc1ccc2c(c1)c1nnc(-c3ccc(F)cc3)c-1cn2Cc1ccccc1 | 10.2% (inactive)
2 | COc1cc2c3nnc(-c4ccc(C)c(C)c4)c-3cn(Cc3ccc(F)cc3)c2cc1OC | 38.2% (inactive)
3 | COc1ccc(-c2nnc3c4cc(OC)c(OC)cc4n(Cc4ccc(C)cc4)cc2-3)cc1 | 7.03% (inactive)
4 | COc1cc2c3nnc(-c4ccc(Cl)cc4)c-3cn(Cc3ccc(F)cc3)c2cc1OC | 187%
5 | COc1cc2c3nnc(-c4ccc(F)cc4)c-3cn(Cc3ccccc3N(C)C)c2cc1OC | 37.2% (inactive)
6 | COc1ccc(-c2nc(C(=O)N[C@@H](CC(C)C)C(=O)O)cn2-c2ccnc3cc(Cl)ccc23)c(OC)c1 | 35.9% (inactive)
7 | COc1cc2c3nnc(-c4ccc(F)cc4)c-3cn(Cc3ccccc3)c2cc1OC | 110%
8 | COc1cccc(OC)c1-c1nc(C(=O)N[C@@H](CC(C)C)C(=O)O)cn1-c1ccnc2cc(Cl)ccc12 | 102%
9 | COc1ccc2c(c1)c1nnc(-c3ccc(F)cc3)c-1cn2Cc1ccc(F)cc1 | 39.5% (inactive)
10 | COc1cc2nc(C)nc(N3CCN(c4ccccc4OC)CC3)c2cc1OC | 17.5% (inactive)
11 | COc1cc2c3nnc(-c4ccc(C)c(C)c4)c-3cn(Cc3ccc(C)cc3)c2cc1OC | 131%
12 | COc1cc2nc(C3CCC3)nc(N3CCN(c4ccccc4C)CC3)c2cc1OC | 9.85% (inactive)
13 | COc1cc2c3nnc(-c4ccc(F)cc4)c-3cn(Cc3ccc(Cl)cc3)c2cc1OC | 67.8%
14 | COc1cc2c3nnc(-c4ccc(F)cc4)c-3cn(Cc3ccc(OC(F)(F)F)cc3)c2cc1OC | 2.56% (inactive)
15 | COc1cc2nc(-c3ccccc3)nc(N3CCN(c4ccccc4OC)CC3)c2cc1OC | 60.6%
16 | COc1cc2c3nnc(-c4ccc(C)cc4)c-3cn(Cc3ccc(C)cc3)c2cc1OC | 132%
17 | COc1cc2c3nnc(-c4ccc(C)cc4)c-3cn(Cc3ccc(F)cc3)c2cc1OC | 90.8%
18 | COc1cc2c3nnc(-c4ccc(Cl)cc4)c-3cn(Cc3ccccc3)c2cc1OC | 99.2%
19 | COc1cc2c3nnc(-c4ccc(F)cc4)c-3cn(Cc3ccc(F)cc3)c2cc1OC | 95.3%
20 | COc1cc2c3nnc(-c4ccc(F)cc4)c-3cn(Cc3cccc(C)c3)c2cc1OC | 191%
21 | COc1cc2c3nnc(-c4ccc(F)cc4)c-3cn(Cc3ccc(C)cc3)c2cc1OC | 115%
22 | Cc1ccc(Cn2cc3c(-c4ccc(F)cc4)nnc-3c3cc4c(cc32)OCO4)cc1 | 13.4% (inactive)
23 | COc1cccc(OC)c1-c1nc(C(=O)N[C@@H](CC(C)C)C(=O)O)cn1-c1cccc2ccccc12 | 110%
24 | COc1ccc(Cn2cc3c(-c4ccc(F)cc4)nnc-3c3cc(OC)c(OC)cc32)cc1 | 56.6%
25 | COc1cccc(OC)c1-c1nc(C(=O)NC2(C(=O)O)C3CC4CC(C3)CC2C4)cn1-c1ccnc2cc(Cl)ccc12 (stereo not given) | 12.4% (inactive)
26 | Cc1ccc(Cn2cc3c(-c4ccc(F)cc4)nnc-3c3ccccc32)cc1 | 9.46% (inactive)
27 | Cc1cccc(C)c1-c1nc(C(=O)N[C@@H](CC(C)C)C(=O)O)cn1-c1ccnc2cc(Cl)ccc12 | 37.7%
28 | COc1cccc(OC)c1-c1cc(C(=O)N[C@@H](CC(C)C)C(=O)O)nn1-c1ccnc2cc(Cl)ccc12 | 48.7%
29 | COc1cc2c3nnc(-c4ccccc4)c-3cn(Cc3ccccc3)c2cc1OC | 55%
30 | COc1ccccc1-c1cc(C(=O)N[C@@H](CC(C)C)C(=O)O)nn1-c1ccnc2cc(Cl)ccc12 | 11.9%

— PubChem BioAssay AID602466 (Sanford-Burnham Center for Chemical Genomics, 2012)
